Test results taken from US9283269B2, “Method for reducing the allergenicity of animal dander” (IMMUNOPATH PROFILE, INC., priority 1998, dated 2016).

Columns and labels:
[1] = ionizing side chain of the amino acid residue; cited from earlier work
[2] = cited from earlier work; for absorption after oral administration: gastrointestinal tract
[3] = test system: dermatitis and fungal infection of the toe nail; settings: 50% acetic acid, brief periods of application
Experimental: Ammoniated butyric acid is […]. […] The acetic acid represents the deaminated glycine in this subject composition can be applied one to seven days per week and can be applied multiple times in one day. The duration of application can range from 2 to 60 minutes (or any other chosen interval) per application.

breast cancer cells = experiment: Breast cancer cell suspension in vitro treated with polysorbate 80; assay type: cell-based
From the text: Parkinson's disease also has an abnormal protein alpha synuculein intracytoplasmic aggregate/inclusion. Lewy bodies instead of normal random coil repeat proteins structures, cancer with deficiency in HLB modulation and adequate surfactant required by DNA progress through normal rheologic flow required in mitosis with normal cellular and nuclear division and sharing of DNA genetic traits and the resultant formation of normal daughter cells. The darkly stained nuclear mitotic figures makes its appearance as an aggregate plaque or precipitate removed from the normal flow of nuclear function and the microcirculation of nuclear DNA genetic nuclear focus and originating cell division. Response to hydrophilic surfactant in vitro is supportive of this thesis (83 percent of the breast cancer cells were killed in 24 to 48 hours with exposure to 0.25 percent polysorbate 80, Tween 80). Again countering the poor solubility of the plaque-like mechanism disease which contributes to metabolization and the normal metabolic turnover of all cell tissue and organs brings about a disease-free therapeutic response. About one-third of these cancers are associated with inflammatory immunologic response T lymphocytic-plasma cell changes and are of poor prognosis. Response to HLB modulation towards a hydrophilic HLB has provided an 83 percent in-vitro encouraging response reported in other embodiment.
Successful anticancer therapeutic activity cancer tissue cell in vitro′ breast cancer cell suspension comparative trials with treatment with 0.25 percent to 0.5 percent polysorbate 80 (Mean 80) with 83 percent reduction in 24 to 48 hours of cancer cell mitochondrial activity after HLB modulation with tween 80, and 50 percent reduction in cancer cells' abnormal morphology and abnormal mitosis on cytopathologic review.

[4] = test system: pediatric liver transplant recipients; settings: of 64 pediatric liver transplant recipients; cited from earlier work
[5] = uric acid crystals; cited from earlier work

With `N=C(N)NCCC[C@H](N)C(=O)O` [Arg, arginine] as the molecule, how does the ΔH [1] read?
The ΔH was 48.4 to 54.6 kJ/mol.

With `N[C@@H](CC(=O)O)C(=O)O` [Asp, aspartic acid] as the molecule, how does the “pK of side chain” value [1] read?
The value was 4.2-4.5.

For `N[C@@H](CS)C(=O)O` [Cys, cysteine], which “pK of side chain” value [1] is on record?
The value was 7.5-8.5.

Which “pK of side chain” value [1] does the source give for `N[C@@H](CCC(=O)O)C(=O)O` [Glu, glutamic acid] here?
Its value is 4.3-4.6.

Which “pK of side chain” value [1] does the source give for `N[C@@H](Cc1c[nH]cn1)C(=O)O` [His, histidine] here?
Its value is 6.2-6.5.

What about the ΔH [1] of the same molecule?
Its ΔH is 29 to 31.5 kJ/mol.

What does the source list for `COc1ccc2c(c1)c(CC(=O)O)c(C)n2C(=O)c1ccc(Cl)cc1` [Indomethacin]?
steady-state concentrations in plasma ([2]; after long-term administration): approximately 0.5 micrograms/ml; time to peak concentration in plasma ([2]; fasting subject, oral): ≤ 2 h; absorption after oral administration [2]: rapidly and almost completely absorbed; bound to plasma proteins ([2]; in vivo): 90%; converted by O-demethylation ([2]; inactive metabolites): about 50%; converted by conjugation with glucuronic acid ([2]; inactive metabolites): about 10%; concentrations in plasma required for an anti-inflammatory effect ([2]; not definitely determined): less than 1 microgram per ml

For `NCCCC[C@H](N)C(=O)O` [Lys, lysine], which “pK of side chain” value [1] is on record?
Its value is 9.8-10.4.

What about the ΔH [1] of the same molecule?
Its ΔH is 42 to 48.4 kJ/mol.

With `O=C(O)c1cc(/N=N/c2ccc(S(=O)(=O)Nc3ccccn3)cc2)ccc1O` [Sulfasalazine, salicylazosulfapyridine] as the molecule, how does the “absorption after oral administration” value [2] read?
The value was “poorly absorbed”.

Which “effect on dermatitis and fungal toe nail infection” value [3] does the source give for `CC(=O)O` [acetic acid] here?
Its value is “dramatically reverse long-term dermatitis and, fungal infection of the toe nail”.

With `CCCCCCCC/C=C\CCCCCCCC(=O)OCCOCC(OCCO)C1OCC(OCCO)C1OCCO` (stereo not drawn) [polysorbate 80] as the molecule, how does the “breast cancer cells killed” value (breast cancer cells; 0.25 percent polysorbate 80, 24 to 48 hours) read?
Its value is 83%.

What about the “reduction in cancer cells' abnormal morphology and abnormal mitosis on cytopathologic review” value (breast cancer cells; 0.25 percent to 0.5 percent polysorbate 80) of the same molecule?
The value was 50%.

And the “reduction of cancer cell mitochondrial activity” value (breast cancer cells; 0.25 percent to 0.5 percent polysorbate 80, 24 to 48 hours)?
Its value is 83%.

With `C=CC[C@@H]1/C=C(\C)C[C@H](C)C[C@H](OC)[C@H]2O[C@@](O)(C(=O)C(=O)N3CCCC[C@H]3C(=O)O[C@H](/C(C)=C/[C@@H]3CC[C@@H](O)[C@H](OC)C3)[C@H](C)[C@@H](O)CC1=O)[C@H](C)C[C@@H]2OC` [tacrolimus] as the molecule, how does the “patients who experienced food allergies” value [4] read?
The value was 17%.

What about the “patients who experienced food allergies (number)” value [4] of the same molecule?
Its value is 11.

Which solubility in glycerine [5] does the source give for `O=c1[nH]c(=O)c2[nH]c(=O)[nH]c2[nH]1` [uric acid] here?
The solubility in glycerine was “very soluble”.

What about the solubility in water [5] of the same molecule?
Its solubility in water is “marked insolubility”.
